Assay results published in article PMC11042424, “Development of a First-in-Class RIPK1 Degrader to Enhance Antitumor Immunity” (Research Square, 2024).

Legend:
RIPK1 and VHL = molecular target: T1, RIPK1 and VHL (Homo sapiens, UniProt P40337+Q13546); experiment: NanoBRET live-cell ternary complex assay; type: cell-based; conditions: HEK293 cells co-transfected with nLuc-RIPK1 and VHL-Halo
T1 construct: Addgene backbone 87075 (RIPK1 vector, made in house) N273A; host or cells: HEK293T
Procedure: Figure 2 LD4172, a RIPK1 PROTAC, induces potent and highly specific degradation of RIPK1 in a panel of cell lines. A, Chemical structures of RIPK1 PROTAC, LD4172, and its negative control, LD4172-NC. […] B, Quantification of RIPK1 levels in both Jurkat and B16F10 cells treated with LD4172 at indicated concentrations for 24 h, followed by Western blotting. C, DC50 and Dmax of LD4172 in various human and mouse cell lines. DC50, the drug concentration causing 50% protein degradation; Dmax, the maximum level of protein degradation. D, RIPK1 degradation kinetics induced by LD4172 treatment (1 μM) and resynthesis kinetics upon washout of LD4172 in both Jurkat and B16F10 cells. […] G, Time-resolved fluorescence resonance energy transfer (TR-FRET) based biochemical binding assay for RIPK1. […] In total, ~10,000 proteins were quantified in the proteomics experiment. […]
Human RIPK1 cDNA insert was cloned into pLenti6.2-ccdB-nLuc plasmid (87075, Addgene, a kind gift from Taipale Lab) using gateway cloning kit (11791020, Thermo) and standard protocol to obtain pLenti6.2-RIPK1-nLuc fusion vector. […] Immediately before reading the plate, prepare 4x concentrated NanoGlo nLuc substrate (N157, Promega) was prepared by diluting the stock into Opti-MEM 1,000-fold, and the NanoGlo substrate was then added into each well to bring the final concentration to 1x. […]

[1] = molecular target: T2, nLuc-RIPK1 fusion protein (Homo sapiens, UniProt Q13546); experiment: NanoBRET based in-cell RIPK1 target engagement
T2 construct: expressed in transfected cells
T2 sequence (Q13546 1-671): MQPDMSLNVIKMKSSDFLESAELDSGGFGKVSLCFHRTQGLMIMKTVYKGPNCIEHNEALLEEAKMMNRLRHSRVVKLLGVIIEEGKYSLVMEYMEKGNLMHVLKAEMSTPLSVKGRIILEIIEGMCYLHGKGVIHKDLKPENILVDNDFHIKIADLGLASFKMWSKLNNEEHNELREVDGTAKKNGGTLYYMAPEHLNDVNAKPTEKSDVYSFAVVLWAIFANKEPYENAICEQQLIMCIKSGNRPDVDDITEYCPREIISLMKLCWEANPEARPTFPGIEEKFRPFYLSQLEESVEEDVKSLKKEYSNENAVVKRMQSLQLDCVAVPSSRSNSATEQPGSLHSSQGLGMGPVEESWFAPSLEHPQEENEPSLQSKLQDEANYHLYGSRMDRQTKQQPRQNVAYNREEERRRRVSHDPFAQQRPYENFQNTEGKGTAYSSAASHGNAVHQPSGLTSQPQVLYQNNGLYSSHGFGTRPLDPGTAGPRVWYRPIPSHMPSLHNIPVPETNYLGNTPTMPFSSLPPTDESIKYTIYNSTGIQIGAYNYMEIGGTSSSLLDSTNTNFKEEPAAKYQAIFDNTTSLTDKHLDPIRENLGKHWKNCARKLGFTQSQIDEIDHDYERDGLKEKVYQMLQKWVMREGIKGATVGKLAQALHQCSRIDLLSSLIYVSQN
Procedure: Figure 2 LD4172, a RIPK1 PROTAC, induces potent and highly specific degradation of RIPK1 in a panel of cell lines. A, Chemical structures of RIPK1 PROTAC, LD4172, and its negative control, LD4172-NC. […] B, Quantification of RIPK1 levels in both Jurkat and B16F10 cells treated with LD4172 at indicated concentrations for 24 h, followed by Western blotting. C, DC50 and Dmax of LD4172 in various human and mouse cell lines. DC50, the drug concentration causing 50% protein degradation; Dmax, the maximum level of protein degradation. D, RIPK1 degradation kinetics induced by LD4172 treatment (1 μM) and resynthesis kinetics upon washout of LD4172 in both Jurkat and B16F10 cells. E, Quantification of D. The degradation half-life of RIPK1 induced by LD4172 (1 μM) is <2 h in Jurkat and B16F10 cells. […] F, NanoBRET based in-cell RIPK1 target engagement. HEK293 cells were transfected with a plasmid expressing nLuc-RIPK1 fusion protein for 24 h, followed by incubating with a RIPK1 NanoBRET tracer (500 nM) and different concentrations of LD4172 and LD4172-NC (n=3). G, Time-resolved fluorescence resonance energy transfer (TR-FRET) based biochemical binding assay for RIPK1. GST-tagged human RIPK1 (1 nM), Tb-labeled anti-GST antibody (0.3 nM), a RIPK1 TR-FRET tracer (350 nM) and different concentrations of LD4172 (n=3) were incubated for 2 hours, followed by TR-FRET measurements with an excitation wavelength at 340 nm and emission wavelengths at 495 and 520 nm. H, NanoBRET based in-cell assay for ternary complex formation. HEK293T cells were co-transfected with nLuc-RIPK1 and VHL-HaloTag plasmids for 24 h, followed by treatment with indicated concentrations of LD4172 or LD4172-NC (n=3). I, LD4172 induced RIPK1 degradation depends on ternary complex formation, neddylation and proteasome activity. Representative immunoblots of RIPK1 in both Jurkat and B16F10 cells. Cells were treated with RIPK1 inhibitor (T2I), VHL ligand, a neddylation inhibitor (MLN4924) or a proteasome inhibitor (Carfilzomib) at indicated concentrations for 4 hours, followed by LD4172 treatment for 4 hours. J, Proteome profiling of LD4172 induced protein degradation. MDA-MB- 231 cells were treated with LD4172 (200 nM) or LD4172-NC (200 nM) for 6 h (n=3). In total, ~10,000 proteins were quantified in the proteomics experiment. […] Blue dots represent kinases that are inhibited by the warhead of LD4172 but not degraded by LD4172.
To elucidate the formation of a binary complex during RIPK1 degradation, we developed a competitive NanoBRET (Nano-Bioluminescence Resonance Energy transfer)-based target engagement (TE) assay to quantify the binding between RIPK1 and LD4172 in cells[12],[13]. First, we developed a RIPK1 tracer by conjugating the LD4172 warhead T2I with a BODIPY-590 fluorescent dye, dubbed T2–590 (refer to Supporting Information for details). The dissociation equilibrium constant (Kd) between the tracer and RIPK1 was determined to be 0.5 μM by titrating the tracer in HEK293T cells expressing a nLuc-RIPK1 fusion protein. […] This is usually expected, considering that the large molecular weight of LD4172 may lead to poor cellular permeability.

RIPK1 [2] = molecular target: T3, RIPK1 (Homo sapiens, UniProt Q13546); experiment: RIPK1 degradation in Jurkat cells, Western blotting; type: cell-based; conditions: pre-treatment 4 hours, then LD4172 4 hours
T3 construct: Quantification of RIPK1 levels in Jurkat cells treated with indicated compounds for 24 h; endogenous in cells; host or cells: Jurkat
T3 sequence (Q13546 1-671): T2 sequence (Q13546 1-671)
From the text: (§1) Figure 1 Design and screen of RIPK1 PROTACs. A, Chemical structure and docking modeling of type II inhibitor 1 with the kinase domain of RIPK1 (PDB: 4NEU). The group exposed to solvent region is highlighted with yellow circle. B, Chemical structure and co-crystal structure of type III inhibitor 2 in complex with RIPK1 (PDB: 6R5F). The solventexposed group of inhibitor 2 is highlighted with yellow circle. C, A small library design of RIPK1 PROTACs. Either Type II inhibitor 1 or type III inhibitor 2 is conjugated with various E3 ligase ligands or adamantane tag to generate a small library of RIPK1 PROTACs. D, Quantification of RIPK1 levels in Jurkat cells treated with indicated compounds for 24 h at 0, 0.1, 1 and 10 μM, followed by Western blotting. E, Quantification of D. F, Quantification of RIPK1 levels in both Jurkat and B16F10 cells treated with type II inhibitor-based PROTACs with different linker lengths for 24 h, followed by Western blotting. G, Quantification of F.
(§2) Figure 2 LD4172, a RIPK1 PROTAC, induces potent and highly specific degradation of RIPK1 in a panel of cell lines. […] B, Quantification of RIPK1 levels in both Jurkat and B16F10 cells treated with LD4172 at indicated concentrations for 24 h, followed by Western blotting. […] G, Time-resolved fluorescence resonance energy transfer (TR-FRET) based biochemical binding assay for RIPK1. […]

RIPK1 [3] = molecular target: T4, RIPK1 (Mus musculus, UniProt Q60855); experiment: RIPK1 degradation in B16F10 mouse melanoma cells, Western blotting; type: cell-based; set-up: Quantification of RIPK1 levels in both Jurkat and B16F10 cells; endogenous in cells; host or cells: B16F10; conditions: pre-treatment 4 hours, then LD4172 4 hours
T4 sequence (Q60855 1-656): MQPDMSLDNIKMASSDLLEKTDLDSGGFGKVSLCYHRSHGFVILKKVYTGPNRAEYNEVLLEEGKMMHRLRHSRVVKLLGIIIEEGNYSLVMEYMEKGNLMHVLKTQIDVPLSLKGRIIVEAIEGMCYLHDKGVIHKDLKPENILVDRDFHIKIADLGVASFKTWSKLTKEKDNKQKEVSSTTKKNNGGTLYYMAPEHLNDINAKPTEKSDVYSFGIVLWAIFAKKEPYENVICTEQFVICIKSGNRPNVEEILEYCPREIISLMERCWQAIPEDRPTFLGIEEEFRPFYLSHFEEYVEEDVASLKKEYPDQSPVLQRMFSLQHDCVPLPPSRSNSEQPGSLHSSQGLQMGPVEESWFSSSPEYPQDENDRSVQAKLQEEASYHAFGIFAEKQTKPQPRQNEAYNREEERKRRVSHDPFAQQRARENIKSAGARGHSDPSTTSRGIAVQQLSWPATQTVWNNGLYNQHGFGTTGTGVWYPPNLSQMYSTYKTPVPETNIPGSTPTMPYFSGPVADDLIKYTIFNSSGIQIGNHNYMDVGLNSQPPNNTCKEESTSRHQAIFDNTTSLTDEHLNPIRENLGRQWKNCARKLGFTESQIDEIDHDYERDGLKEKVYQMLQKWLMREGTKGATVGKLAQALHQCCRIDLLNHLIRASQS
From the text: as §1, §2

| Compound | ternary complex formation, NanoBRET between RIPK1 and VHL (RIPK1 and VHL) | target engagement (TE) compared with LD4172 [1] | IC50 ([1]; HEK293 cells, tracer 500 nM, n=3, read-out: IC50 (nM), Fig. 2F) [nM] | effect on RIPK1 degradation by LD4172 (RIPK1 [2]) | effect on RIPK1 degradation by LD4172 (RIPK1 [3]) |
| --- | --- | --- | --- | --- | --- |
| Cc1ncsc1-c1ccc([C@H](C)NC(=O)[C@H]2C[C@H](O)CN2C(=O)[C@@H](NC(=O)CCCCCCCCCCC(=O)NCCCn2cc(-c3ccc4c(c3)CCN4C(=O)Cc3cccc(OC(F)(F)F)c3)c3c(N)ncnc32)C(C)(C)C)cc1 [LD4172-NC] | not | TE similar to that of LD4172 | 1850 | – | – |
| NS(=O)(=O)OC[C@@H]1C[C@@H](n2ccc3c(N[C@H]4CCc5ccccc54)ncnc32)C[C@@H]1O [MLN4924] | – | – | – | reversed | reversed |
| CC(C)C[C@H](NC(=O)[C@H](CCc1ccccc1)NC(=O)CN1CCOCC1)C(=O)N[C@@H](Cc1ccccc1)C(=O)N[C@@H](CC(C)C)C(=O)[C@@]1(C)CO1 [carfilzomib] | – | – | – | reversed | reversed |
